These are literature values, as cited in patent US7368458B2, “Bicyclic heterocycles as cannabinoid receptor modulators” (Bristol-Myers Squibb Company, priority 2005, dated 2008).

Like-named read-outs stand apart in the source and are kept apart here.

For data set [1] the following is noted: chronic administration for two weeks.
The conditions of data set [2]: human subjects, 16 week trial period.

Regarding `Cc1c(C(=O)NN2CCCCC2)nn(-c2ccc(Cl)cc2Cl)c1-c1ccc(I)cc1` [AM-251], the body weight entry in data set [1] is listed as “substantial body weight reduction”.

Turning to `Cc1c(C(=O)NN2CCCCC2)nn(-c2ccc(Cl)cc2Cl)c1-c1ccc(Cl)cc1` [SR-141716], the body weight entry in data set [2] is “dose-dependently reduced body weight”.
